Results taken from paper PMC10916402, “Meropenem-ANT3310, a unique β-lactam-β-lactamase inhibitor combination with expanded antibacterial spectrum against Gram-negative pathogens including carbapenem-resistant Acinetobacter baumannii” (Antimicrobial Agents and Chemotherapy, 2024).
pIC50: −log10 of the molar value. Where two headings read alike, the source gives them in different places.

Tests used:
Assay in all cases: In vitro SBL inhibition assay (nitrocefin hydrolysis), IC50
KPC-2 = KPC-2 (Klebsiella pneumoniae, UniProt Q9F663); format: biochemical
Sequence of KPC-2 (Q9F663 25-293 limits assumed): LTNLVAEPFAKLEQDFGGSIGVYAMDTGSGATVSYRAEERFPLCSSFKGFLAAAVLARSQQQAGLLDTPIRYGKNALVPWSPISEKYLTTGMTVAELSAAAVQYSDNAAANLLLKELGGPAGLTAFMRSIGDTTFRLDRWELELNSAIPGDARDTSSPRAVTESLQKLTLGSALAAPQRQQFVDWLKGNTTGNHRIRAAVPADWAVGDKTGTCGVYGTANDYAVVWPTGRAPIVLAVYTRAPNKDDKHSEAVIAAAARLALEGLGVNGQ
Description: (§1) Nitrocefin (Sigma-Aldrich, St Louis, MO, USA), a chromogenic cephalosporin antibiotic (λ, 482 nm; εM, 15,000 M^−1.cm^−1), was used as a reporter substrate at 100 µM for KPC-2, OXA-23, and OXA-48, at 200 µM for OXA-24 and OXA-51, and at 50 µM for OXA-58. Enzymes were preincubated in the presence of varying concentrations of each compound (0.006 to 3000 nM, diluted twofold in dimethyl sulfoxide (DMSO) for KPC-2, OXA-23, and OXA-48 assays and 0.51 to 10,000 nM diluted threefold in DMSO for OXA-24, OXA-51, and OXA-58) for 10 min at 30°C. Nitrocefin was then added and its hydrolysis by the uninhibited enzyme fraction was followed at an absorbance wavelength of 482 nm for 10 min at 30°C using Envision UV fluorescence plate reader (Perkin Elmer, Waltham, MA, USA). Hydrolysis rate data were used to determine inhibitory activities, expressed in IC50 values [corresponding to the compound concentration (µM) required to inhibit 50% of enzymatic reaction].

OXA-48 = OXA-48 (Klebsiella pneumoniae, UniProt Q6XEC0); format: biochemical; conditions: 10 min preincubation, 30°C, read-out: Enzyme IC50
Sequence of OXA-48 (Q6XEC0 23-265, looked up, species assumed): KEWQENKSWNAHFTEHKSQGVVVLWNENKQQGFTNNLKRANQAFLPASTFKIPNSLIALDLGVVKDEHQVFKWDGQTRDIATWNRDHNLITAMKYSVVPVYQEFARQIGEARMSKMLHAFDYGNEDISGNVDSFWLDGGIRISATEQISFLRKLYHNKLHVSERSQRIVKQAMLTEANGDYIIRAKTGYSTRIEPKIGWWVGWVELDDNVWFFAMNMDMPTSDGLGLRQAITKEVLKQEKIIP
Description: as §1

OXA-23 = OXA-23 (Acinetobacter baumannii, UniProt Q9L4P2); format: biochemical; conditions: 10 min preincubation, 30°C, read-out: Enzyme IC50
Sequence of OXA-23 (Q9L4P2 18-273): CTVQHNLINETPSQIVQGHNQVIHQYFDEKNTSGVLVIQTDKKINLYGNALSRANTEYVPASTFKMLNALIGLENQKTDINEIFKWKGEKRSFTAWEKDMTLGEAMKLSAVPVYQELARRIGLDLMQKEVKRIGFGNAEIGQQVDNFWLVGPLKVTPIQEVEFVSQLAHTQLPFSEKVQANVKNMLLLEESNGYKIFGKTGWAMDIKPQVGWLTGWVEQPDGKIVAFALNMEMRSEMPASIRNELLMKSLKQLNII
Description: as §1

OXA-24/40 = OXA-24/40 (Acinetobacter baumannii, UniProt Q8RLA6); format: biochemical; conditions: 10 min preincubation, 30°C, read-out: Enzyme IC50
Sequence of OXA-24/40 (Q8RLA6 22-275): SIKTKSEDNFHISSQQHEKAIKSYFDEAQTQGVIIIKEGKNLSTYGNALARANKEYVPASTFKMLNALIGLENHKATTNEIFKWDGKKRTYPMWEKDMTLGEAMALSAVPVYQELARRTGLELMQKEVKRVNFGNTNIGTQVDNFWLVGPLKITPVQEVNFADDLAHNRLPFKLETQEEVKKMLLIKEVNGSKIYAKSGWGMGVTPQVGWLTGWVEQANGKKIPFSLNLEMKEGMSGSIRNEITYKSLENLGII
Description: as §1

OXA-58 = OXA-58 (Acinetobacter baumannii, UniProt Q2TR58); format: biochemical, A. baumannii
Sequence of OXA-58 (Q2TR58 19-280): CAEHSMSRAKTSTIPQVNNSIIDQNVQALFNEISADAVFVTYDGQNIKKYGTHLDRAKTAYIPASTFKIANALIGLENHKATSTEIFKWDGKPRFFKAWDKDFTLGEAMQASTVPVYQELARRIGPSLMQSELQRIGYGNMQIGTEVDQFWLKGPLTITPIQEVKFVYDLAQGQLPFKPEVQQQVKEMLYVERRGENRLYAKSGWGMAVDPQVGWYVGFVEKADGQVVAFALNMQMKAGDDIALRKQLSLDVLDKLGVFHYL
Description: as §1

OXA-51 = OXA-51 (Acinetobacter baumannii, UniProt Q5QT35); format: biochemical, A. baumannii; conditions: 10 min preincubation, 30°C, read-out: Enzyme IC50
Sequence of OXA-51 (Q5QT35 entry or part of it): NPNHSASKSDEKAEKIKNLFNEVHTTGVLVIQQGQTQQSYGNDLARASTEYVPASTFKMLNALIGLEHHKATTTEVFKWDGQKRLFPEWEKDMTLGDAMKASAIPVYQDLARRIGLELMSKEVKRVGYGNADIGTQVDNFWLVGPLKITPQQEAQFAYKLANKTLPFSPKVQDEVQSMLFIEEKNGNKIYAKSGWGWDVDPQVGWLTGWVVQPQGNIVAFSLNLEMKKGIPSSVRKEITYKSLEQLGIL
Description: as §1

Row | SMILES | pIC50 (KPC-2) | pIC50 (OXA-48) | pIC50 (OXA-23) | pIC50 (OXA-24/40) | pIC50 (OXA-58) | pIC50 (OXA-51) | pIC50 (KPC-2; KPC-2, 10 min preincubation, 30°C, read-out: Enzyme IC50)
1 | NCCONC(=O)[C@@H]1CC[C@@H]2CN1C(=O)N2OS(=O)(=O)O [Nac, nacubactam] | 7.57 | < 5.52 | < 5.52 | < 5.00 | < 5.00 | < 5.00 | –
2 | O=C(NNC(=O)[C@@H]1CC[C@@H]2CN1C(=O)N2OS(=O)(=O)O)[C@@H]1CCCNC1 [Zid, zidebactam] | 7.41 | – | < 5.52 | < 5.00 | < 5.00 | < 5.00 | –
3 | NC(=O)[C@@H]1CC[C@@H]2CN1C(=O)N2OS(=O)(=O)O [Avi, avibactam] | – | – | – | – | < 5.00 | < 5.00 | –
4 | O=C(O)C[C@@H]1CC[C@H](NC(=O)Cc2cccs2)B(O)O1 [Vab, vaborbactam] | – | < 5.52 | < 5.52 | – | < 5.00 | – | 6.99
